Test results taken from BigSolDB 2.1.

Cc1cnc(C(=O)O)c[n+]1[O-]
solubility (mole fraction)
Conditions | 283.15 K | 288.15 K | 293.15 K | 298.15 K | 303.15 K | 308.15 K | 313.15 K | 318.15 K
in acetone | 0.00157 | 0.00176 | 0.00198 | 0.00222 | 0.00249 | 0.00279 | 0.00317 | 0.00362
in acetonitrile | 0.00057 | 0.000757 | 0.00097 | 0.00118 | 0.00142 | 0.00172 | 0.00205 | 0.00249
in methanol | 0.00211 | 0.00244 | 0.00285 | 0.00328 | 0.00381 | 0.00443 | 0.00517 | 0.00598
in water | 0.00198 | 0.00227 | 0.00265 | 0.0031 | 0.0036 | 0.00426 | 0.00498 | 0.00579
